Reference: patent US20250114460A1, “NOVEL PLK1 DEGRADATION INDUCING COMPOUND” (UPPTHERA, INC., priority 2021, published 2025)

Molecular target: T1, PLK1 (Homo sapiens, UniProt P53350)
T1 construct: endogenous in cells; host or cells: HeLa LgBit (Plk1-HiBit KI): HeLa stably expressing LgBit, with a CRISPR/Cas9 knock-in of HiBit at the endogenous PLK1 locus
Test: Luciferase assay for PLK1 in HeLa LgBit (Plk1-HiBit KI) cell line
Format: cell-based
Conditions: 300 nM compound, luminescence after 9 hours
Method: 2. Luciferase Assay for PLK1
(1) Preparation and Culture of HeLa LgBit (Plk1-HiBit KI) Cell Line
A HeLa cell line in which the LgBit vector was transfected and expressed stably was prepared. Then, after constructing gRNA and donor to express the HiBit amino acid sequence behind the C-terminal of the Plk1 gene, which was inherent in the cell, it was inserted into the cell together with a vector capable of expressing CRISPR/Cas9. Only the cells in which the insertion was completed and knock-in had progressed were selected, sub-cultured and used.
(2) Treatment of Compounds of the Present Invention and Method of Luciferase Assay
In the case of HeLa LgBit (Plk1-HiBit KI), the compounds were treated after being released after thymidine block, and the process was as follows. Thymidine (Sigma-Aldrich Cat. No. T9250-5G) was completely dissolved in DW and used in the experiment. For thymidine block, the products were treated with 2 mM of thymidine and then incubated for 24 hours. For release and chemical treatment, the medium was suctioned and washed with 1×PBS. TrypLE™ was added and incubated in 37° C. CO2 incubator for 5 min. Cells neutralized by adding complete media were counted through a counter. For each well of a 96-well culture plate (SPL), 3.3×10^4 cells and a total medium volume of 150 μL were seeded and incubated in a CO2 incubator.
Each cell line was incubated in a CO2 incubator for 18 hours, and Endurazine was added to each well to make up 4% of the total volume. After adding the compound of the present invention in a 96-well white plate (SPL) to a concentration of 300 nM, the wavelength of the plate reader (BMG Labtech, CLARIOstar Plus) was set to […], and then the luminescence was tracked in real time.
In Table 2, Activity represents the ratio of the luminescense value of each Exemplary Compound treatment group to DMSO treatment group (+++: <0.3, ++<0.6, +<0.7).

T1 sequence (P53350 whole entry): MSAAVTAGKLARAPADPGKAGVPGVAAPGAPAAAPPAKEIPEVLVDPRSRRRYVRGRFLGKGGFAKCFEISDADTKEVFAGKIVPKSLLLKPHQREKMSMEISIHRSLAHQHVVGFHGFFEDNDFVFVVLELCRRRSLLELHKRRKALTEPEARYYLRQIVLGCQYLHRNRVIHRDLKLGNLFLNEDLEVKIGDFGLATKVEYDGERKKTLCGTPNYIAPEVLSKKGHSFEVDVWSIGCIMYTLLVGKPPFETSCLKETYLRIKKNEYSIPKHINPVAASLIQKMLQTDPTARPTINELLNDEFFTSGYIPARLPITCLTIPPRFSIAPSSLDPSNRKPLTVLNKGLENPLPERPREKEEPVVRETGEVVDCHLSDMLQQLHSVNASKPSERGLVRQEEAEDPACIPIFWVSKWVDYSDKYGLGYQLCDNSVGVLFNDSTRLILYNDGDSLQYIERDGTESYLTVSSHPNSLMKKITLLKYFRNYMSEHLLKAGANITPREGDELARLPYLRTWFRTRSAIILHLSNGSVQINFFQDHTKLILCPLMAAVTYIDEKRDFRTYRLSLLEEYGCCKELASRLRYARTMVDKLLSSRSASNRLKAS

## C=CC[C@H]1CN(C2CCCC2)c2nc(Nc3ccc(C(=O)NC4CCN(C(=O)CCN5CCN(c6cccc7c6C(=O)N(C6CCC(=O)NC6=O)C7=O)CC5)CC4)cc3OC)ncc2N(C)C1=O (single isomer, unassigned) [Compound 70, 4-((7-allyl-9-cyclopentyl-5-methyl-6-oxo-6,7,8,9-tetrahydro-5H-pyrimido[4,5-b][1, 4]diazepin-2-yl)amino)-N-(1-(3-(4-(2-(2,6-dioxopiperidin-3-yl)-1,3-dioxoisoindolin-4-yl)piperazin-1-yl)propanoyl)piperidin-4-yl)-3-methoxybenzamide]
  Activity: ratio of the luminescense value of each Exemplary Compound treatment group to DMSO treatment group: ++ (++<0.6)

## C=C[C@]1(F)CN(C2CCCC2)c2nc(Nc3ccc(C(=O)NC4CCN(C(=O)CCN5CCN(c6cccc7c6C(=O)N(C6CCC(=O)NC6=O)C7=O)CC5)CC4)cc3OC)ncc2N(C)C1=O (single isomer, unassigned) [Compound 109]
  Activity: ratio of the luminescense value of each Exemplary Compound treatment group to DMSO treatment group: + (+<0.7)

## COc1cc(C(=O)NC2CCN(CCNc3cccc4c3C(=O)N(C3CCC(=O)NC3=O)C4=O)CC2)c(F)cc1Nc1ncc2c(n1)N(C1CCCC1)CC(F)(F)C(=O)N2C (stereo not drawn) [Compound 1, 4-((9-cyclopentyl-7,7-difluoro-5-methyl-6-oxo-6,7,8,9-tetrahydro-5H-pyrimido[4,5-b][1,4]diazepin-2-yl)amino)-N-(1-(2-((2-(2,6-dioxopiperidin-3-yl)-1,3-dioxoisoindolin-4-yl)amino)ethyl)piperidin-4-yl)-2-fluoro-5-methoxybenzamide]
  Activity: ratio of the luminescense value of each Exemplary Compound treatment group to DMSO treatment group: ++ (++<0.6)

## COc1cc(C(=O)NC2CCN(CCOc3ccc4c(c3)C(=O)N(C3CCC(=O)NC3=O)C4=O)CC2)c(F)cc1Nc1ncc2c(n1)N(C1CCCC1)CC(F)(F)C(=O)N2C (stereo not drawn) [Compound 3, 4-((9-cyclopentyl-7,7-difluoro-5-methyl-6-oxo-6,7,8,9-tetrahydro-5H-pyrimido[4,5-b][1,4]diazepin-2-yl)amino)-N-(1-(2-((2-(2,6-dioxopiperidin-3-yl)-1,3-dioxoisoindolin-5-yl)oxy)ethyl)piperidin-4-yl)-2-fluoro-5-methoxybenzamide]
  Activity: ratio of the luminescense value of each Exemplary Compound treatment group to DMSO treatment group: ++ (++<0.6)

## COc1cc(C(=O)NC2CCN(CCSc3cccc4c3C(=O)N(C3CCC(=O)NC3=O)C4=O)CC2)c(F)cc1Nc1ncc2c(n1)N(C1CCCC1)CC(F)(F)C(=O)N2C (stereo not drawn) [Compound 11, 4-((9-cyclopentyl-7,7-difluoro-5-methyl-6-oxo-6,7,8,9-tetrahydro-5H-pyrimido[4,5-b][1,4]diazepin-2-yl)amino)-N-(1-(2-((2-(2,6-dioxopiperidin-3-yl)-1,3-dioxoisoindolin-4-yl)thio)ethyl)piperidin-4-yl)-2-fluoro-5-methoxybenzamide]
  Activity: ratio of the luminescense value of each Exemplary Compound treatment group to DMSO treatment group: ++ (++<0.6)

## COc1cc(C(=O)NC2CCN(CCCc3cccc4c3C(=O)N(C3CCC(=O)NC3=O)C4=O)CC2)ccc1Nc1ncc2c(n1)N(C1CCCC1)CC(F)(F)C(=O)N2C (stereo not drawn) [Compound 14, 4-((9-cyclopentyl-7,7-difluoro-5-methyl-6-oxo-6,7,8,9-tetrahydro-5H-pyrimido[4,5-b][1,4]diazepin-2-yl)amino)-N-(1-(3-(2-(2,6-dioxopiperidin-3-yl)-1,3-dioxoisoindolin-4-yl)propyl)piperidin-4-yl)-3-methoxybenzamide]
  Activity: ratio of the luminescense value of each Exemplary Compound treatment group to DMSO treatment group: ++ (++<0.6)

## COc1cc(C(=O)N[C@H]2CC[C@@H](N(C)CCCNc3cccc4c3C(=O)N(C3CCC(=O)NC3=O)C4=O)CC2)ccc1Nc1ncc2c(n1)N(C1CCCC1)CC(F)(F)C(=O)N2C (stereo partly drawn) [Compound 16, 4-((9-cyclopentyl-7,7-difluoro-5-methyl-6-oxo-6,7,8,9-tetrahydro-5H-pyrimido[4,5-b][1,4]diazepin-2-yl)amino)-N-((1s,4s)-4-((3-((2-(2,6-dioxopiperidin-3-yl)-1,3-dioxoisoindolin-4-yl)amino)propyl)(methyl)amino)cyclohexyl)-3-methoxybenzamide]
  Activity: ratio of the luminescense value of each Exemplary Compound treatment group to DMSO treatment group: + (+<0.7)

## COc1cc(C(=O)NC2CCN(CCOCCOCCOCCOCCOCCOCCNc3cccc4c3C(=O)N(C3CCC(=O)NC3=O)C4=O)CC2)c(F)cc1Nc1ncc2c(n1)N(C1CCCC1)CC(F)(F)C(=O)N2C (stereo not drawn) [Compound 17, 4-((9-cyclopentyl-7,7-difluoro-5-methyl-6-oxo-6,7,8,9-tetrahydro-5H-pyrimido[4,5-b][1,4]diazepin-2-yl)amino)-N-(1-(20-((2-(2,6-dioxopiperidin-3-yl)-1,3-dioxoisoindolin-4-yl)amino)-3,6,9,12,15,18-hexaoxaicosyl)piperidin-4-yl)-2-fluoro-5-methoxybenzamide]
  Activity: ratio of the luminescense value of each Exemplary Compound treatment group to DMSO treatment group: ++ (++<0.6)

## COc1cc(C(=O)NC2CCN(Cc3ccc(COc4ccc5c(c4)CN([C@H]4CCC(=O)NC4=O)C5=O)cc3)CC2)ccc1Nc1ncc2c(n1)N(C1CCCC1)CC(F)(F)C(=O)N2C [Compound 22, (S)-4-((9-cyclopentyl-7,7-difluoro-5-methyl-6-oxo-6,7,8,9-tetrahydro-5H-pyrimido[4,5-b][1,4]diazepin-2-yl)amino)-N-(1-(4-(((2-(2,6-dioxopiperidin-3-yl)-1-oxoisoindolin-5-yl)oxy)methyl)benzyl)piperidin-4-yl)-3-methoxybenzamide]
  Activity: ratio of the luminescense value of each Exemplary Compound treatment group to DMSO treatment group: + (+<0.7)

## COc1cc(C(=O)NC2CCN(C(=O)CCNc3cccc4c3C(=O)N(C3CCC(=O)NC3=O)C4=O)CC2)c(F)cc1Nc1ncc2c(n1)N(C1CCCC1)CC(F)(F)C(=O)N2C (stereo not drawn) [Compound 24, 4-((9-cyclopentyl-7,7-difluoro-5-methyl-6-oxo-6,7,8,9-tetrahydro-5H-pyrimido[4,5-b][1,4]diazepin-2-yl)amino)-N-(1-(3-((2-(2,6-dioxopiperidin-3-yl)-1,3-dioxoisoindolin-4-yl)amino)propanoyl)piperidin-4-yl)-2-fluoro-5-methoxybenzamide]
  Activity: ratio of the luminescense value of each Exemplary Compound treatment group to DMSO treatment group: + (+<0.7)

## CN1C(=O)C(F)(F)CN(C2CCCC2)c2nc(Nc3ccc(C(=O)NC4CCN(C(=O)CCCNc5cccc6c5C(=O)N(C5CCC(=O)NC5=O)C6=O)CC4)cc3F)ncc21 (stereo not drawn) [Compound 27, 4-((9-cyclopentyl-7,7-difluoro-5-methyl-6-oxo-6,7,8,9-tetrahydro-5H-pyrimido[4,5-b][1,4]diazepin-2-yl)amino)-N-(1-(4-((2-(2,6-dioxopiperidin-3-yl)-1,3-dioxoisoindolin-4-yl)amino)butanoyl)piperidin-4-yl)-3-fluorobenzamide]
  Activity: ratio of the luminescense value of each Exemplary Compound treatment group to DMSO treatment group: ++ (++<0.6)

## COc1cc(C(=O)NC2CCN(C(=O)CCCNc3ccc4c(c3)C(=O)N(C3CCC(=O)NC3=O)C4=O)CC2)c(F)cc1Nc1ncc2c(n1)N(C1CCCC1)CC(F)(F)C(=O)N2C (stereo not drawn) [Compound 35, 4-((9-cyclopentyl-7,7-difluoro-5-methyl-6-oxo-6,7,8,9-tetrahydro-5H-pyrimido[4,5-b][1,4]diazepin-2-yl)amino)-N-(1-(4-((2-(2,6-dioxopiperidin-3-yl)-1,3-dioxoisoindolin-5-yl)amino)butanoyl)piperidin-4-yl)-2-fluoro-5-methoxybenzamide]
  Activity: ratio of the luminescense value of each Exemplary Compound treatment group to DMSO treatment group: + (+<0.7)
